Test results as given in PMC10304291, “THC-Reduced Cannabis sativa L.—How Does the Solvent Determine the Bioavailability of Cannabinoids Given Orally?” (Nutrients, 2023).

Key:
[1] = Whole-blood pharmacokinetics of CBD and THC after single oral dose of Cannabis sativa extract; settings: whole blood, single oral dose of extract 30 mg/kg; for concentration at 0.5 h / concentration at 1 h / concentration at 2 h / concentration at 4 h / concentration at 6 h / concentration at 24 h / AUC(0-t) / Cmax / MRT / Tmax: male, Wistar, rat, 30 mg/kg; for concentration at 0.5 h / concentration at 1 h / concentration at 2 h / concentration at 4 h / concentration at 6 h / concentration at 24 h: oral; for AUC(0-t) / Cmax / MRT / Tmax: po; for AUC(0-t): AUC0–24, whole blood
[2] = Brain pharmacokinetics of CBD and THC after single oral dose of Cannabis sativa extract; settings: for mean concentration over time / Kp / concentration at 0.5 h / concentration at 1 h / concentration at 2 h / concentration at 4 h / concentration at 6 h / AUC(0-t) / Cmax / MRT: single oral dose of extract 30 mg/kg; for mean concentration over time: Table 7; for Kp: brain / whole blood, AUCbrain:AUC whole blood (AUC0–24 ratio); for concentration at 0.5 h / concentration at 1 h / concentration at 2 h / concentration at 4 h / concentration at 6 h: oral; for AUC(0-t): AUC0–24, brain
[3] = 12 healthy volunteers; chocolate cookies with 0.57 mg/kg CBD + 0.28 mg/kg THC; after 1.5–3 h; cited from earlier work
[4] = mini-pigs; oral CBD 15 mg/kg; cited from earlier work
[5] = rats; 3 or 6 h after oral CBD 50 mg/kg in olive oil; cited from earlier work
[6] = Mean Concentration ± SD, blood, Rapae oleum
[7] = Mean Concentration, blood, Cremophor
[8] = mean concentration over time, Blood/Cremophor, Table 7
[9] = mean concentration over time, Blood/Rapae Oleum, Table 7
[10] = male, Wistar, rat, brain, po, 30 mg/kg, Cremophor
[11] = male, Wistar, rat, brain, po, 30 mg/kg, Rapae oleum

Q: Which concentration at 0.5 h [1, 6] does the source give for CCCCCc1cc(O)c2c(c1)OC(C)(C)[C@@H]1CCC(C)=C[C@@H]21 [THC, Δ-9-tetrahydrocannabinol] here?
A: The concentration at 0.5 h was 11.9 ± 18 ng/g.

Q: What about the concentration at 1 h [1, 6] of the same compound?
A: The concentration at 1 h was 11 ± 5.21 ng/g.

Q: And the concentration at 2 h [1, 6]?
A: Its concentration at 2 h is 24 ± 7.22 ng/g.

Q: And the concentration at 4 h [1, 6]?
A: The concentration at 4 h was 26.2 ± 19.1 ng/g.

Q: And the concentration at 6 h [1, 6]?
A: Its concentration at 6 h is 10.3 ± 2.1 ng/g.

Q: What about the concentration at 24 h [1, 6] of the same compound?
A: The concentration at 24 h was 0.445 ± 0.21 ng/g.

Q: And the concentration at 0.5 h [1, 7]?
A: Its concentration at 0.5 h is 13.1 ± 10.9 ng/g.

Q: What about the concentration at 1 h [1, 7] of the same compound?
A: The concentration at 1 h was 18.5 ± 1.98 ng/g.

Q: What about the concentration at 2 h [1, 7] of the same compound?
A: Its concentration at 2 h is 14 ± 3.3 ng/g.

Q: And the concentration at 4 h [1, 7]?
A: Its concentration at 4 h is 8.01 ± 1.48 ng/g.

Q: What about the concentration at 6 h [1, 7] of the same compound?
A: The concentration at 6 h was 9.04 ± 4.39 ng/g.

Q: What about the concentration at 24 h [1, 7] of the same compound?
A: Its concentration at 24 h is 3.79 ± 4.59 ng/g.

Q: What about the concentration at 0.5 h [1, 8] of the same compound?
A: Its concentration at 0.5 h is 13.1 ng/mL.

Q: And the concentration at 1 h [1, 8]?
A: Its concentration at 1 h is 18.5 ng/mL.

Q: And the concentration at 2 h [1, 8]?
A: The concentration at 2 h was 14 ng/mL.

Q: What about the concentration at 4 h [1, 8] of the same compound?
A: The concentration at 4 h was 8.01 ng/mL.

Q: And the concentration at 6 h [1, 8]?
A: Its concentration at 6 h is 9.04 ng/mL.

Q: What about the concentration at 24 h [1, 8] of the same compound?
A: The concentration at 24 h was 3.79 ng/mL.

Q: And the concentration at 0.5 h [1, 9]?
A: The concentration at 0.5 h was 11.9 ng/mL.

Q: What about the concentration at 1 h [1, 9] of the same compound?
A: Its concentration at 1 h is 11 ng/mL.

Q: And the concentration at 2 h [1, 9]?
A: The concentration at 2 h was 24 ng/mL.

Q: What about the concentration at 4 h [1, 9] of the same compound?
A: The concentration at 4 h was 26.2 ng/mL.

Q: And the concentration at 6 h [1, 9]?
A: Its concentration at 6 h is 10.3 ng/mL.

Q: What about the concentration at 24 h [1, 9] of the same compound?
A: Its concentration at 24 h is 0.445 ng/mL.

Q: What about the AUC(0-t) ([1]; Cremophor) of the same compound?
A: Its AUC(0-t) is 217 ng·h/mL.

Q: What about the AUC(0-t) ([1]; Rapae oleum) of the same compound?
A: Its AUC(0-t) is 186 ng·h/mL.

Q: And the Cmax ([1]; Cremophor)?
A: Its Cmax is 18.5 ng/mL.

Q: What about the Cmax ([1]; Rapae oleum) of the same compound?
A: Its Cmax is 26.2 ng/mL.

Q: And the MRT ([1]; Cremophor)?
A: Its MRT is 12.7 h.

Q: What about the MRT ([1]; Rapae oleum) of the same compound?
A: Its MRT is 5.75 h.

Q: What about the Tmax ([1]; Cremophor) of the same compound?
A: The Tmax was 1 h.

Q: What about the Tmax ([1]; Rapae oleum) of the same compound?
A: The Tmax was 4 h.

Q: What about the CL ([1]; Cremophor) of the same compound?
A: The CL was 2.18 L/h.

Q: And the Vd ([1]; Cremophor)?
A: The Vd was 28.26 L.

Q: What about the CL ([1]; Rapae oleum) of the same compound?
A: Its CL is 2.56 L/h.

Q: What about the Vd ([1]; Rapae oleum) of the same compound?
A: Its Vd is 15.15 L.

Q: And the “mean concentration over time” value ([2]; Brain/Cremophor, 0.5 h)?
A: The value was 18.575.

Q: What about the “mean concentration over time” value ([2]; Brain/Cremophor, 1 h) of the same compound?
A: The value was 49.521.

Q: And the “mean concentration over time” value ([2]; Brain/Cremophor, 2 h)?
A: The value was 56.85.

Q: And the “mean concentration over time” value ([2]; Brain/Cremophor, 4 h)?
A: Its value is 35.976.

Q: What about the “mean concentration over time” value ([2]; Brain/Cremophor, 6 h) of the same compound?
A: Its value is 35.947.

Q: What about the “mean concentration over time” value ([2]; Brain/Cremophor, 24 h) of the same compound?
A: Its value is 1.154.

Q: What about the “mean concentration over time” value ([2]; Brain/Rapae oleum, 0.5 h) of the same compound?
A: The value was 3.719.

Q: And the “mean concentration over time” value ([2]; Brain/Rapae oleum, 1 h)?
A: Its value is 43.593.

Q: What about the “mean concentration over time” value ([2]; Brain/Rapae oleum, 2 h) of the same compound?
A: Its value is 75.768.

Q: What about the “mean concentration over time” value ([2]; Brain/Rapae oleum, 4 h) of the same compound?
A: Its value is 27.792.

Q: And the “mean concentration over time” value ([2]; Brain/Rapae oleum, 6 h)?
A: Its value is 3.7605.

Q: And the “mean concentration over time” value ([2]; Brain/Rapae oleum, 24 h)?
A: Its value is 0.

Q: And the Kp ([2]; male, Wistar, rat, po, 30 mg/kg, Cremophor)?
A: Its Kp is 1.22.

Q: And the Kp ([2]; male, Wistar, rat, po, 30 mg/kg, Rapae oleum)?
A: The Kp was 3.72.

Q: What about the concentration at 0.5 h ([2]; male, Wistar, rat, brain, 30 mg/kg, Mean Concentration ± SD, Rapae oleum, 0.5 h) of the same compound?
A: The concentration at 0.5 h was 3.72 ± 2.35 ng/g.

Q: And the concentration at 1 h ([2]; male, Wistar, rat, brain, 30 mg/kg, Mean Concentration ± SD, Rapae oleum, 1 h)?
A: The concentration at 1 h was 43.6 ± 24.8 ng/g.

Q: What about the concentration at 2 h ([2]; male, Wistar, rat, brain, 30 mg/kg, Mean Concentration ± SD, Rapae oleum, 2 h) of the same compound?
A: The concentration at 2 h was 75.8 ± 43.8 ng/g.

Q: And the concentration at 4 h ([2]; male, Wistar, rat, brain, 30 mg/kg, Mean Concentration ± SD, Rapae oleum, 4 h)?
A: Its concentration at 4 h is 27.8 ± 15.2 ng/g.

Q: What about the concentration at 6 h ([2]; male, Wistar, rat, brain, 30 mg/kg, Mean Concentration ± SD, Rapae oleum, 6 h) of the same compound?
A: The concentration at 6 h was 3.76 ± 2.61 ng/g.

Q: And the concentration at 0.5 h ([2]; male, Wistar, rat, brain, 30 mg/kg, Mean Concentration, Cremophor, 0.5 h)?
A: Its concentration at 0.5 h is 18.6 ± 11.6 ng/g.

Q: What about the concentration at 1 h ([2]; male, Wistar, rat, brain, 30 mg/kg, Mean Concentration, Cremophor, 1 h) of the same compound?
A: The concentration at 1 h was 49.5 ± 9.47 ng/g.

Q: What about the concentration at 2 h ([2]; male, Wistar, rat, brain, 30 mg/kg, Mean Concentration, Cremophor, 2 h) of the same compound?
A: Its concentration at 2 h is 56.9 ± 7.39 ng/g.

Q: What about the concentration at 4 h ([2]; male, Wistar, rat, brain, 30 mg/kg, Mean Concentration, Cremophor, 4 h) of the same compound?
A: Its concentration at 4 h is 36 ± 7.45 ng/g.

Q: And the concentration at 6 h ([2]; male, Wistar, rat, brain, 30 mg/kg, Mean Concentration, Cremophor, 6 h)?
A: The concentration at 6 h was 35.9 ± 12.7 ng/g.

Q: What about the Tmax ([2]; male, Wistar, rat, brain, po, 30 mg/kg) of the same compound?
A: Its Tmax is 4 h.

Q: And the AUC(0-t) [2, 10]?
A: The AUC(0-t) was 656 ng·h/mL.

Q: And the AUC(0-t) [2, 11]?
A: Its AUC(0-t) is 553 ng·h/mL.

Q: What about the Cmax [2, 10] of the same compound?
A: Its Cmax is 56.9 ng/g.

Q: What about the Cmax [2, 11] of the same compound?
A: The Cmax was 75.8 ng/g.

Q: What about the MRT [2, 10] of the same compound?
A: The MRT was 5.11 h.

Q: And the MRT [2, 11]?
A: The MRT was 7.19 h.

Q: What about the whole-blood concentration [3] of the same compound?
A: Its whole-blood concentration is “about 5 ng/mL”.

Q: What about the “Δ9-THC after oral CBD” value [4] of the same compound?
A: Its value is “did not detect”.

Q: What about the “Δ9-THC in the blood after oral CBD” value [5] of the same compound?
A: Its value is “did not detect”.
